Measurements taken from patent publication US10155798B2, “Anti-obesity compounds derived from neuromedin U” (The Regents of the University of California, priority 2013, dated 2018).
*1 amine or outer side, *2 acyl side, *3 side chain or, on linkers, in order; H or OH if unused. Where a SMILES comes first, the peptide text is derived from it. Bridges are numbered along the chain shown (N, C = ends). [ ]: non-standard residue; d: D form. The star is where a group is joined. mXylylene(5-CH2SC16H33) = CCCCCCCCCCCCCCCCSCc1cc(C[*:1])cc(C[*:2])c1; X1 = CCCCCCCCCCCCCCCCN(CCCCCCCCCCCCCCCC)CCCCCC(=O)*; Tic = O=C(O)[C@@H]1Cc2ccccc2CN1; Aib = CC(C)(N)C(=O)O; Ahx = NCCCCCC(=O)O

Columns and labels:
[1] = biological target: T1, NMUR1 (neuromedin U 1 receptor) (Homo sapiens, UniProt Q9HB89); experiment: Calcium mobilization assay, HEK-NMU1 cells; assay type: cell-based; conditions: HEK293 cells expressing NMU1 receptor, NA = not active
T1 construct: expressed in transfected cells; host or cells: HEK293 (HEK-NMU1)
T1 sequence (Q9HB89 1-426): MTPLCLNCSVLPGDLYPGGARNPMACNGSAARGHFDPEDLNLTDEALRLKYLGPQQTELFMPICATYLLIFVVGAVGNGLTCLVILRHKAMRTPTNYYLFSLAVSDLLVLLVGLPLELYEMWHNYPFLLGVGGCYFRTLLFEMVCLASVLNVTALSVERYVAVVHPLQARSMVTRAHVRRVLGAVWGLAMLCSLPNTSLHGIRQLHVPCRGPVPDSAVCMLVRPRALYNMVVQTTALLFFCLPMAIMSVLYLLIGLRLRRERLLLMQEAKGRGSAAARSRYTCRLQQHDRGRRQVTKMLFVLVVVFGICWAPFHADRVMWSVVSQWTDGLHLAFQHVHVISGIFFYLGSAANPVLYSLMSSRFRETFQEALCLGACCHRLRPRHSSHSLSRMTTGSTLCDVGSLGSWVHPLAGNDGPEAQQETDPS
Experimental: (§1) To test whether neuromedin U can be modified/derivatized to yield truncated bioactive compound(s) that may be useful as therapeutics, we synthesized a small library (25 peptides) of hNMU analogs utilizing various stabilization protocols, including: cyclization, lipidation, introduction of α,α-disubstituted and N-methylated amino acids, retro-inverso-approach, and combination of such (see Table 1). Subsequently all analogues were tested against human neuromedin U receptors (NMUR1 and NMUR2) in calcium mobilization assay (collaboration with Dr Gary Willars, University of Leicester, UK).
HEK293 cells expressing either the neuromedin U 1 receptor or neuromedin U 2 receptor (HEK-NMU1 and HEK-NMU2 respectively) were grown to approximately 90% confluence in ELISA strip plates (96-well format) pre-coated with poly-D-lysine (0.1% w/v) and loaded for 45 min at 37° C. with 2 iM fluo-4-AM in Krebs'-HEPES buffer with bovine serum albumin (KHB-BSA; composition: 10 mM HEPES; 4.2 mM NaHCO3; 11.7 mM D-glucose; 1.18 mM MgSO4.7H2O; 1.18 mM KH2PO4; 4.69 mM KCl; 118 mM NaCl; 1.3 mM CaCl2.2H2O; 0.1% (w/v) BSA; pH 7.4). Monolayers were then washed and equilibrated for 5 min at 37° C. in 100 il KHB-BSA for subsequent recording of fluorescence as an index of intracellular [Ca^2+] ([Ca^2+]i) using a microplate reader (NOVOstar; BMG LABTECH, Aylesbury, U.K.). […]

[2] = biological target: T2, NMUR2 (neuromedin U 2 receptor) (Homo sapiens, UniProt Q9GZQ4); experiment: Calcium mobilization assay, HEK-NMU2 cells; assay type: cell-based; conditions: HEK293 cells expressing NMU2 receptor, NA = not active
T2 construct: expressed in transfected cells; host or cells: HEK293 (HEK-NMU2)
T2 sequence (Q9GZQ4 whole entry): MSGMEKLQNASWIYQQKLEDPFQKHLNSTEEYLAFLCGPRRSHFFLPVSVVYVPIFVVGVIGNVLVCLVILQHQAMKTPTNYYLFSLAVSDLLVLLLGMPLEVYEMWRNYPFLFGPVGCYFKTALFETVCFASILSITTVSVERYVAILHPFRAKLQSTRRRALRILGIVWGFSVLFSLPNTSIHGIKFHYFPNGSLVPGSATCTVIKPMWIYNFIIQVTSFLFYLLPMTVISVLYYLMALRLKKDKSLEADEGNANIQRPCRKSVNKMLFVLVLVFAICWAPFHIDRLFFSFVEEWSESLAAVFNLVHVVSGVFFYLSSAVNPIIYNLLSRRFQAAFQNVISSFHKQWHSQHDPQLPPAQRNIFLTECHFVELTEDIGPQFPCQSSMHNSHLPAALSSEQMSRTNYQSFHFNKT
Experimental: as §1
HEK293 cells expressing either the neuromedin U 1 receptor or neuromedin U 2 receptor (HEK-NMU1 and HEK-NMU2 respectively) were grown to approximately 90% confluence in ELISA strip plates (96-well format) pre-coated with poly-D-lysine (0.1% w/v) and loaded for 45 min at 37° C. with 2 iM fluo-4-AM in Krebs'-HEPES buffer with bovine serum albumin (KHB-BSA; composition: 10 mM HEPES; 4.2 mM NaHCO3; 11.7 mM D-glucose; 1.18 mM MgSO4.7H2O; 1.18 mM KH2PO4; 4.69 mM KCl; 118 mM NaCl; 1.3 mM CaCl2.2H2O; 0.1% (w/v) BSA; pH 7.4). Monolayers were then washed and equilibrated for 5 min at 37° C. in 100 il KHB-BSA for subsequent recording of fluorescence as an index of intracellular [Ca^2+] ([Ca^2+]i) using a microplate reader (NOVOstar; BMG LABTECH, Aylesbury, U.K.). Briefly, 20 μl of KHB-BSA, with or without ligand, was added into the well (200 μl/s) and fluorescence determined at 0.5 s intervals by excitation at 485 nm and collection of emitted light at 520 nm. Changes in fluorescence above basal levels (before ligand addition) were determined. […] Fmax was obtained by removal of buffer and addition of KHB-BSA buffer containing 4 mM [Ca^2+] and ionomycin (2 μM) to representative wells and the fluorescence measured for 10 min. Fmin was then derived by replacing buffer with Ca^2+-free KHB-BSA buffer containing 2 mM EGTA and fluorescence measured for 10 min. For the determination of concentration-response relationships, the maximal change in [Ca^2+]i was calculated following ligand addition. Concentration-response curves were then fitted using a four-parameter logistic equation to determine EC50 values (GraphPad Software Inc., Calif.).

[3] = tested on: male DIO C57BL/6 mice; experiment: Chronic in vivo experiments in DIO mice (body weight, food intake, gastric emptying); design: species or system mouse; conditions: for gastric emptying in experimental animals: s.c. 1603 nMole/kg, chronic regimen
Experimental: FIG. 4. Anorectic effects of NM4A in chronic in vivo experiments. (A) Ad libitum fed male DIO C57BL/6 mice were treated with either vehicle or NM4A (2.2 mg/kg; 1603 nMole/kg) every 2, 4 or 7 days for 21 days. (B) Ad libitum fed male DIO C57BL/6 mice were treated with either vehicle or NM4A (2.2 mg/kg; 1603 nMole/kg) once a week for 21 days. After initial treatment animals were kept either on high-fat diet (FD) or normal diet (ND).
FIG. 6. (A) Comparison of anorectic effects of NM4A & NM4-C16 analogs in chronic in vivo experiments. Ad libitum fed male DIO C57BL/6 mice were treated with either vehicle or NM4A (2.2 mg/kg; 1603 nMole/kg) or NM4-C16 (2.6 mg/kg; 1603 nMole/kg) every 7 days for 21 days. (B) Food intake of animals treated with NM4-C16 (2.6 mg/kg; 1603 nMole/kg) every 7 days for 21 days.
NM4A was characterized further in in vivo chronic experiments. Ad libitum fed male DIO C57BL/6 mice, which were kept on the high fat diet (Cat #D12492, Research Diets, Inc., New Brunswick, N.J.), were treated subcutaneously (s.c.) with either vehicle or NM4A (2.2 mg/kg; 1603 nMole/kg) either every 2, 4 or 7 days for 21 days. […] To determine whether NM4A can be used as an auxiliary in dieting of the obese subjects we tested its efficiency in once weekly regimen at the 2.2 mg/kg dose. In this case, ad libitum fed male DIO C57BL/6 mice were kept either on the high fat diet (FD) or regular diet (ND) during NM4A's administration.
(§2) Despite limited success with our “double-lipidation” approach, we decided to test NM4-C16 analog in vivo using once weekly subcutaneous injection regimen at the 2.6 mg/kg dose, which is equimolar to previously used NM4A dose (e.g. 1603 nMole/kg).
All animal experiments were approved by the UCLA Animal Care and Use Committee (ARC #1999-173-23) and conformed to local and national guidelines. Ad libitum fed male DIO C57BL/6 mice (n=8 per group) kept on D12492, a high-fat diet composed of 60% Kcal from fat (Research Diets, Inc., New Brunswick, N.J.) were weighed and individually dosed (s.c., 30 min prior to the onset of the dark phase of the light cycle) with either vehicle or NM4A (2.2 mg/kg; 1603 nMole/kg) every 2 days or NM4A (2.2 mg/kg; 1603 nMole/kg) every 4 days or NM4A (2.2 mg/kg; 1603 nMole/kg) every 7 days or NM4-C16 (2.6 mg/kg; 1603 nMole/kg) every 7 days for 21 days and their food intake and body weight were measured daily. […] Briefly, calculated amount of the desired peptide (1 eq) and 10 equivalents of PUREBRIGHT® SL-220 (1 mg: 10 mg) were solubilized in minimal volume of 90% absolute ethyl alcohol in water. Subsequently solution was aliquoted into Eppendorf tubes and freeze-dried. Obtained solid residue was re-solubilized in the proper amount of PBS directly before use by vortexing.

[4] = tested on: male DIO C57BL/6 mice; experiment: Hematological parameters of animals treated with NM4-C16; assay type: in vivo, mouse; conditions: 2.6 mg/kg every 7 days for 21 days
Experimental: as §2

[5] = tested on: male DIO C57BL/6 mice; experiment: Abdominal fat evaluation of chronically treated animals; assay type: in vivo, mouse; conditions: chronic treatment 21 days, 1603 nMole/kg; vehicle ~8%
Experimental: (§3) FIG. 7. (A) Abdominal fat evaluation of chronically treated animals. Ad libitum fed male DIO C57BL/6 mice were treated with either vehicle or NM4A (2.2 mg/kg; 1603 nMole/kg) every 2 days or NM4A (2.2 mg/kg; 1603 nMole/kg) every 4 days or ^(*)NM4-C16 (2.6 mg/kg; 1603 nMole/kg) every 7 days for 21 days. Subsequently, their abdominal fat was harvested and weighted. Results are expressed as % of abdominal fat per total body weight. (B) Distribution of NM4A in NM4A chronically treated animals (2.2 mg/kg; every 2 days for 28 days).
For three groups of animals treated every 2, 4 and 7 days we also performed abdominal fat evaluation (FIG. 7A).

[6] = Water solubility; assay type: physicochemical
[7] = tested on: diet induced obese (DIO) mouse model; experiment: Single dose in vivo anorectic experiments in DIO mouse model; conditions: DIO mice
Description: FIG. 3. Single dose in vivo experiments performed in DIO mouse model. (A) Comparison of anorectic effects of NM4 and NM7. (B) NM4 dose response experiments. (C) Comparison of NM4 and NM4A anorectic activity.
Initially we focused on single dose experiments comparing NM4 and NM7 at 5344 nMole/kg dose (FIG. 3).

[8] = Body distribution of NM4A in chronically treated animals; assay type: in vivo, mouse; conditions: 2.2 mg/kg every 2 days for 28 days
Experimental: as §3
To test body distribution of NM-analogs we performed also limited ADME studies in animals that underwent chronic treatment with NM4A every 2 days for 28 days (2.2 mg/kg; 1603 nMole/kg dose).
Ad libitum fed male DIO C57BL/6 mice that underwent chronic treatment with NM4A (2.2 mg/kg; 1603 nMole/kg; dosing every 2 days for 28 days) were sacrificed and their organs/tissues harvested and weighted. […] Obtained homogenate(s) were transferred to 1.5 mL Eppendorf tubes and centrifuged for 10 min at 13000 rpm.

| SMILES | EC50 [1] | EC50 [2] | body weight, once-weekly administration ([3]; s.c. 2.6 mg/kg (1603 nMole/kg) every 7 days for 21 days) | gastric emptying in experimental animals [3] | hematological parameters/blood cell count [4] | abdominal fat content (% of abdominal fat per total body weight) [5] | water solubility [6] | duration of anorectic effects after single dose administration ([7]; 1603 nMole/kg, 2.2 mg/kg) | in vivo activity relative to NM4 ([7]; single dose, FIG. 3C) | body weight, once weekly regimen as auxiliary in dieting ([3]; 2.2 mg/kg once a week for 21 days, high fat diet (FD) or regular diet (ND)) | anorectic effects, chronic treatment ([3]; s.c. 2.2 mg/kg every 2 and every 4 days for 21 days, high fat diet) | anorectic effects, chronic treatment, less frequent dosage ([3]; s.c. 2.2 mg/kg every 7 days for 21 days, high fat diet) | entry into the brain [8] | tissue with highest content [8] |
| --- | --- | --- | --- | --- | --- | --- | --- | --- | --- | --- | --- | --- | --- | --- |
| CC(C)C[C@H](NC(=O)[C@H](Cc1ccccc1)NC(=O)CCCCCNC(=O)[C@@H](N)CS)C(=O)N[C@@H](Cc1ccccc1)C(=O)N[C@@H](CCCNC(=N)N)C(=O)N1Cc2ccccc2C[C@H]1C(=O)N[C@@H](CCCNC(=N)N)C(=O)N[C@@H](CC(N)=O)C(=O)NCCCCCC(=O)N[C@@H](CS)C(N)=O [NM10, C-Ahx-FL-Phe-Arg-Tic-R-Asn-Ahx-C] (H-C[Ahx]FLFR[Tic]RN[Ahx]C-NH2) | 3980 nM | 2690 nM | – | – | – | – | – | – | – | – | – | – | – | – |
| CCCCCCCCCCCCCCCCSCc1cc2cc(c1)CSC[C@H](N)C(=O)NCCCCCC(=O)N[C@@H](Cc1ccccc1)C(=O)N[C@@H](CC(C)C)C(=O)N[C@@H](Cc1ccccc1)C(=O)N[C@@H](CCCNC(=N)N)C(=O)N1Cc3ccccc3C[C@H]1C(=O)N[C@@H](CCCNC(=N)N)C(=O)N[C@@H](CC(N)=O)C(=O)NCCCCCC(=O)N[C@H](C(N)=O)CSC2 [NM16, PalS-X(C-Ahx-FL-Phe-Arg-Tic-R-Asn-Ahx-C)] (H-C[Ahx]FLFR[Tic]RN[Ahx]C-NH2; linker 1-11 via mXylylene(5-CH2SC16H33)) | 3980 nM | – | – | – | – | – | – | – | – | – | – | – | – | – |
| CCCCCCCCCCCCCCCCN(CCCCCCCCCCCCCCCC)CCCCCC(=O)NC(C)(C)C(=O)N[C@@H](Cc1ccccc1)C(=O)N[C@@H](CC(C)C)C(=O)N[C@@H](Cc1ccccc1)C(=O)N[C@@H](CCCNC(=N)N)C(=O)N1CCC[C@H]1C(=O)N[C@@H](CCCNC(=N)N)C(=O)N[C@@H](CC(N)=O)C(N)=O [Peptide M4-C16, (c16)2-Ahx-Aib-FL-Phe-Arg-Pro-R-Asn] (X1-[Aib]FLFRPRN-NH2) | – | 741 ± 32 nM | sustained weight loss | very limited gastric emptying | appears to be normal | ~5% | limited water solubility | – | – | – | – | – | – | – |
| CCCCCCCCCCCCCCCCNC(=O)CNCC(=O)NC(C)(C)C(=O)N[C@@H](Cc1ccccc1)C(=O)N[C@@H](CC(C)C)C(=O)N[C@@H](Cc1ccccc1)C(=O)N[C@@H](CCCNC(=N)N)C(=O)N1CCC[C@H]1C(=O)N[C@@H](CCCNC(=N)N)C(=O)N[C@@H](CC(N)=O)C(N)=O [Peptide M4A, Ida^NHPal-Aib-FL-Phe-Arg-Pro-R-Asn] | – | 6.46 ± 0.89 nM | – | causes initially gastric emptying | – | ~5% | limited water solubility | ≤ 20 days | at least 3.5 times | additional body weight decrease | potent anorectic effects | limited activity | does not appear to enter the brain effectively | highest content of NM4A is detected in plasma |
